# Assay results taken from US9266921B2, “PGC-1α-modulating peptides” (Lipotec, S.A., priority 2011, dated 2016).
# Test system: human PGC-1α promoter
# Assay: Modulation of the human PGC-1α promoter activity (luciferase reporter, Hep G2)
# Format: cell-based
# Settings: Hep G2 transfected with luciferase under human PGC-1α promoter; peptide 0.5 mg/mL, 24 hours; normalized to carrier = 100%
# Experimental: The modulation capacity of the promoter of human PGC-1α is evaluated by the peptides in the invention in the hepatocellular Hep G2 carcinoma cell line transfected with the luciferase gene under the regulation of the human PGC-1α promoter. The cells are seeded at a density of 20,000 cells/25 cm^2 plate) and incubated for 24 hours in RPMI-1640 complete medium, after which the peptides of the invention are added at 0.5 mg/mL and are incubated for another 24 hours. The RPMI-1640 complete medium (carrier) is used as a negative control. The measurement of the promoter's activity is carried out using the Steady-Glo® Luciferase Assay System (PROMEGA) kit following the manufacturer's instructions. The luminescence values are read on a luminometer […] and the activity of the promoter is determined, which is normalized with regards to the values of the negative control.
row,Substance,Activity of the PGC-1α promoter (%)
1,Ac-L-Ser-L-Val-L-Val-L-Val-L-Ala-L-Val-NH2 (Ac-SVVVAV-NH2) [Ac-SEQ ID NO. 32-NH2],82
2,Ac-L-His-L-Val-L-Tyr-L-Val-L-Ala-L-Thr-NH2 (Ac-HVYVAT-NH2) [Ac-SEQ ID NO. 4-NH2],77
3,Ac-L-His-L-Val-L-Tyr-L-Val-L-Ala-L-Val-NH2 (Ac-HVYVAV-NH2) [Ac-SEQ ID NO. 27-NH2],42
4,Ac-L-His-L-Val-L-Val-L-Val-L-Arg-L-Val-NH2 (Ac-HVVVRV-NH2) [Ac-SEQ ID NO. 39-NH2],186
5,Ac-L-Ser-L-Val-L-Val-L-Val-L-Arg-L-Val-NH2 (Ac-SVVVRV-NH2) [Ac-SEQ ID NO. 40-NH2],141
6,Ac-L-His-L-Ile-L-Tyr-L-Val-L-Arg-L-Val-NH2 (Ac-HIYVRV-NH2) [Ac-SEQ ID NO. 33-NH2],117
7,Ac-L-Ser-L-Val-L-Tyr-L-Val-Gly-L-Val-NH2 (Ac-SVYVGV-NH2) [Ac-SEQ ID NO. 44-NH2],67
8,Ac-L-His-L-Val-L-Val-L-Val-L-Ala-L-Thr-NH2 (Ac-HVVVAT-NH2) [Ac-SEQ ID NO. 8-NH2],89
9,Ac-L-His-L-Ile-L-Val-L-Val-L-Arg-L-Val-NH2 (Ac-HIVVRV-NH2) [Ac-SEQ ID NO. 37-NH2],118
10,Ac-L-Ser-L-Ile-L-Val-L-Val-L-Ala-L-Val-NH2 (Ac-SIVVAV-NH2) [Ac-SEQ ID NO. 30-NH2],120
11,Ac-L-Ser-L-Ile-L-Val-L-Val-L-Ala-L-Thr-NH2 (Ac-SIVVAT-NH2) [Ac-SEQ ID NO. 7-NH2],145
12,Ac-L-His-L-Ile-L-Val-L-Val-L-Ala-L-Val-NH2 (Ac-HIVVAV-NH2) [Ac-SEQ ID NO. 29-NH2],81
13,Ac-L-His-L-Ile-L-Tyr-L-Val-L-Ala-L-Val-NH2 (Ac-HIYVAV-NH2) [Ac-SEQ ID NO. 25-NH2],76
14,Ac-L-His-L-Val-L-Tyr-L-Val-Gly-L-Val-NH2 (Ac-HVYVGV-NH2) [Ac-SEQ ID NO. 43-NH2],75
15,Ac-L-Ser-L-Val-L-Val-L-Val-Gly-L-Thr-NH2 (Ac-SVVVGT-NH2) [Ac-SEQ ID NO. 24-NH2],90
16,Ac-L-His-L-Ile-L-Tyr-L-Val-L-Arg-L-Thr-NH2 (Ac-HIYVRT-NH2) [Ac-SEQ ID NO. 10-NH2],115
17,Ac-L-Ser-L-Ile-L-Tyr-L-Val-Gly-L-Val-NH2 (Ac-SIYVGV-NH2) [Ac-SEQ ID NO. 42-NH2],64
18,Ac-L-Ser-L-Val-L-Val-L-Val-L-Ala-L-Thr-NH2 (Ac-SVVVAT-NH2) [Ac-SEQ ID NO. 9-NH2],62
19,Ac-L-Ser-L-Ile-L-Val-L-Val-L-Arg-L-Thr-NH2 (Ac-SIVVRT-NH2) [Ac-SEQ ID NO. 15-NH2],150
20,Ac-L-His-L-Ile-L-Val-L-Val-L-Ala-L-Thr-NH2 (Ac-HIVVAT-NH2) [Ac-SEQ ID NO. 6-NH2],72
21,Ac-L-His-L-Val-L-Tyr-L-Val-L-Arg-L-Val-NH2 (Ac-HVYVRV-NH2) [Ac-SEQ ID NO. 35-NH2],132
22,Ac-L-Ser-L-Ile-L-Tyr-L-Val-L-Arg-L-Val-NH2 (Ac-SIYVRV-NH2) [Ac-SEQ ID NO. 34-NH2],134
23,Ac-L-Ser-L-Val-L-Tyr-L-Val-Gly-L-Thr-NH2 (Ac-SVYVGT-NH2) [Ac-SEQ ID NO. 20-NH2],76
24,Ac-L-Ser-L-Ile-L-Val-L-Val-L-Arg-L-Val-NH2 (Ac-SIVVRV-NH2) [Ac-SEQ ID NO. 38-NH2],180
25,Ac-L-Ser-L-Ile-L-Tyr-L-Val-L-Ala-L-Val-NH2 (Ac-SIYVAV-NH2) [Ac-SEQ ID NO. 26-NH2],40
